Measured values taken from publication PMC8623215, “Zhaoshumycins A and B, Two Unprecedented Antimycin-Type Depsipeptides Produced by the Marine-Derived Streptomyces sp. ITBB-ZKa6” (Marine Drugs, 2021).

Test system: MCF7 human breast cancer cell line
Assay: Cytotoxic activity test, MTT method, MCF7 cells
Assay type: cell-based
Details: for inhibition rate: compound at 50 µM, dissolved in DMSO
Description: Dimethyl sulfoxide (DMSO) was used to dissolve the tested compounds.

Row | Substance | inhibition rate [%] | cytotoxic activity (in words) (preliminary in vitro test)
1 | neoantimycin D [Compound 5] | 91.08 | weak cytotoxic activity
2 | neoantimycin E [Compound 6] | 90.53 | 
